Read-outs that look alike come from different tables or passages of the source.
What was measured:
[1] = system: RSV (RSV A2 ECACC, 0709161v); experiment: RSV plaque reduction assay; assay type: cell-based, respiratory syncytial virus; conditions: mean of at least two experiments unless noted (n = 1)
Procedure, shortened: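 Hep-G2 monolayers infected with 100 PFU/well RSV A2 premixed with eight serial compound dilutions (2 h, 37° C.), then kept 2 days under CMC overlay with compound in DMEM/2% FBS. Plaques immunostained (HRP/TrueBlue) and counted; % infection versus virus control gives EC50, mean of at least two experiments, rounded.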

cell toxicity CC50 = assay type: cell-based; conditions: human; Hep-G2 cells; mean of at least two experiments; read-out: Cell Cytotoxicity CC50
[2] = human respiratory syncytial virus, HepG2, read-out: RSV A2 Plaque EC50, RSV A2 in Hep-G2 cells

In the case of `CN(C)CC1COc2c(C(=O)N[C@H]3N=C(c4ccccc4)c4cccc(F)c4NC3=O)c(-c3ccccc3F)nn2C1` (stereo in doubt) [Example 171-1, (6R*)-6-[(Dimethylamino)methyl]-N-[(3S)-9-fluoro-2-oxo-5-phenyl-1,3-dihydro-1,4-benzodiazepin-3-yl]-2-(2-fluorophenyl)-6,7-dihydro-5H-pyrazolo[5,1-b][1,3]oxazine-3-carboxamide], the EC50 [1, 2] is reported as 0.053 µM and the CC50 (cell toxicity CC50) is reported as over 25 µM.

`CC(C)NCc1ccc(-c2nn3c(c2C(=O)N[C@H]2N=C(c4ccccc4)c4cccc(F)c4NC2=O)O[C@H](C)CC3)c(F)c1` [Example 183, (5R)-N-[(3S)-9-fluoro-2-oxo-5-phenyl-1,3-dihydro-1,4-benzodiazepin-3-yl]-2-[2-fluoro-4-[(propan-2-ylamino)methyl]phenyl]-5-methyl-6,7-dihydro-5H-pyrazolo[5,1-b][1,3]oxazine-3-carboxamide] gave an EC50 [1, 2] of 0.294 µM and a CC50 (cell toxicity CC50) of over 25 µM.

For `CS(=O)(=O)c1ccc(-c2nn3c(c2C(=O)N[C@H]2N=C(c4ccccc4)c4cccc(F)c4NC2=O)OCCC3)c(F)c1` [Example 135, 2-(2-Fluoro-4-methylsulfonylphenyl)-N-[(3S)-9-fluoro-2-oxo-5-phenyl-1,3-dihydro-1,4-benzodiazepin-3-yl]-6,7-dihydro-5H-pyrazolo[5,1-b][1,3]oxazine-3-carboxamide], the EC50 [1, 2] was 0.015 µM and the CC50 (cell toxicity CC50) was over 25 µM.

`CCN(CC)Cc1ccc(-c2nn3c(c2C(=O)N[C@H]2N=C(c4ccccc4)c4cccc(F)c4NC2=O)OCCC3)c(F)c1` [Example 102, 2-[4-(Diethylaminomethyl)-2-fluorophenyl]-N-[(3S)-9-fluoro-2-oxo-5-phenyl-1,3-dihydro-1,4-benzodiazepin-3-yl]-6,7-dihydro-5H-pyrazolo[5,1-b][1,3]oxazine-3-carboxamide] gave an EC50 [1, 2] of 0.135 µM and a CC50 (cell toxicity CC50) of over 25 µM.

`NC(=O)c1ccc(-c2nn3c(c2C(=O)N[C@H]2N=C(c4ccccc4)c4cccc(F)c4NC2=O)OCCC3)c(F)c1` [Example 142, 2-(4-Carbamoyl-2-fluorophenyl)-N-[(3S)-9-fluoro-2-oxo-5-phenyl-1,3-dihydro-1,4-benzodiazepin-3-yl]-6,7-dihydro-5H-pyrazolo[5,1-b][1,3]oxazine-3-carboxamide] gave an EC50 [1, 2] of 0.282 µM and a CC50 (cell toxicity CC50) of over 25 µM.

In the case of `C[C@@H]1COc2c(C(=O)N[C@H]3N=C(c4ccccc4)c4cccc(F)c4NC3=O)c(-c3ccccc3F)nn2C1` [Example 9, (6S)-N-[(3S)-9-fluoro-2-oxo-5-phenyl-1,3-dihydro-1,4-benzodiazepin-3-yl]-2-(2-fluorophenyl)-6-methyl-6,7-dihydro-5H-pyrazolo[5,1-b][1,3]oxazine-3-carboxamide], the EC50 [1, 2] is reported as 0.03 µM and the CC50 (cell toxicity CC50) is reported as over 18.8 µM.

With `Cc1ccc(-c2nn3c(c2C(=O)N[C@H]2N=C(c4ccccc4)c4cccc(F)c4NC2=O)O[C@H](C)CC3)c(F)n1` [Example 73, (5R)-2-(2-Fluoro-6-methylpyridin-3-yl)-5-methyl-N-[(3S)-9-fluoro-2-oxo-5-phenyl-1,3-dihydro-1,4-benzodiazepin-3-yl]-6,7-dihydro-5H-pyrazolo[5,1-b][1,3]oxazine-3-carboxamide] the EC50 [1, 2] was 0.091 µM and the CC50 (cell toxicity CC50) was over 25 µM.

`O=C(N[C@H]1N=C(c2ccccc2)c2cccc(F)c2NC1=O)c1c(-c2ccccc2F)nn2c1OC(CN1CCCC1)CC2` (stereo partly drawn) [Example 187, N-[(3S)-9-fluoro-2-oxo-5-phenyl-1,3-dihydro-1,4-benzodiazepin-3-yl]-2-(2-fluorophenyl)-5-(pyrrolidin-1-ylmethyl)-6,7-dihydro-5H-pyrazolo[5,1-b][1,3]oxazine-3-carboxamide] showed an EC50 [1, 2] of 0.249 µM and a CC50 (cell toxicity CC50) of over 8.84 µM.

In the case of `CC1(C)CCn2nc(-c3ccccc3F)c(C(=O)N[C@H]3N=C(c4ccccc4)c4cccc(F)c4NC3=O)c2O1` [Example 5, N-[(3S)-9-fluoro-2-oxo-5-phenyl-2,3-dihydro-1H-1,4-benzodiazepin-3-yl]-2-(2-fluorophenyl)-5,5-dim ethyl-5H,6H,7H-pyrazolo[3,2-b][1,3]oxazine-3 carboxamide], the EC50 [1, 2] is reported as 0.054 µM and the CC50 (cell toxicity CC50) is reported as over 25 µM.

`C[C@@H]1CCn2nc(-c3cc(C4CC4)cnc3F)c(C(=O)N[C@H]3N=C(c4ccccc4)c4cccc(F)c4NC3=O)c2O1` [Example 53, (5R)-2-(5-Cyclopropyl-2-fluoro-3-pyridyl)-N-[(3S)-9-fluoro-2-oxo-5-phenyl-1,3-dihydro-1,4-benzodiazepin-3-yl]-5-methyl-6,7-dihydro-5H-pyrazolo[5,1-b][1,3]oxazine-3-carboxamide] showed an EC50 [1, 2] of 0.092 µM and a CC50 (cell toxicity CC50) of over 25 µM.

`O=C(N[C@H]1N=C(c2ccccc2)c2ccccc2NC1=O)c1nn2c(c1-c1ccc(NC3CC3)nc1F)OCCC2` [Example 38, 3-[6-(Cyclopropylamino)-2-fluoropyridin-3-yl]-N-[(3S)-2-oxo-5-phenyl-1,3-dihydro-1,4-benzodiazepin-3-yl]-6,7-dihydro-5H-pyrazolo[5,1-b][1,3]oxazine-2-carboxamide] showed an EC50 [1, 2] of 0.189 µM and a CC50 (cell toxicity CC50) of over 25 µM.

Work on `O=C(N[C@H]1N=C(c2ccccc2)c2ccccc2NC1=O)c1c(-c2c(F)cccc2F)nn2c1OC(CO)CC2` (single isomer, unassigned) [Example 188-1, (5R*)-2-(2,6-Difluorophenyl)-5-(hydroxymethyl)-N-[(3S)-2-oxo-5-phenyl-1,3-dihydro-1,4-benzodiazepin-3-yl]-6,7-dihydro-5H-pyrazolo[5,1-b][1,3]oxazine-3-carboxamide] yielded an EC50 [1, 2] of 0.141 µM and a CC50 (cell toxicity CC50) of over 25 µM.

For `O=C(N[C@H]1N=C(c2ccccc2)c2cccc(F)c2NC1=O)c1c(-c2ccc(C3CC3)nc2)nn2c1OCCC2` [Example 18, 2-(6-Cyclopropylpyridin-3-yl)-N-[(3S)-9-fluoro-2-oxo-5-phenyl-1,3-dihydro-1,4-benzodiazepin-3-yl]-6,7-dihydro-5H-pyrazolo[5,1-b][1,3]oxazine-3-carboxamide], the EC50 [1, 2] was 0.096 µM and the CC50 (cell toxicity CC50) was over 25 µM.

`COCC1CCn2nc(-c3ccccc3F)c(C(=O)N[C@H]3N=C(c4ccccc4)c4cccc(F)c4NC3=O)c2O1` (single isomer, unassigned) [Example 191-1, (5R*)-N-[(3S)-9-fluoro-2-oxo-5-phenyl-1,3-dihydro-1,4-benzodiazepin-3-yl]-2-(2-fluorophenyl)-5-(methoxymethyl)-6,7-dihydro-5H-pyrazolo[5,1-b][1,3]oxazine-3-carboxamide] gave an EC50 ([1]; read-out: RSV A2 Plaque EC50, RSV A2 in Hep-G2 cells) of 0.083 µM and a CC50 (cell toxicity CC50) of over 25 µM.

Work on `CC1CCn2nc(Cc3ccccc3)c(C(=O)N[C@H]3N=C(c4ccccc4)c4cccc(F)c4NC3=O)c2O1` (stereo in doubt) [Example 109, (5S)-2-Benzyl-N-[(3S)-9-fluoro-2-oxo-5-phenyl-1,3-dihydro-1,4-benzodiazepin-3-yl]-5-methyl-6,7-dihydro-5H-pyrazolo[5,1-b][1,3]oxazine-3-carboxamide] yielded an EC50 [1, 2] of 0.114 µM and a CC50 (cell toxicity CC50) of over 25 µM.

`C[C@@H]1CCn2nc(-c3ccc(F)nc3N3C[C@@H]4C[C@H]3CO4)c(C(=O)N[C@H]3N=C(c4ccccc4)c4cccc(F)c4NC3=O)c2O1` (single isomer, unassigned) [Example 89] gave an EC50 [1, 2] of 0.122 µM and a CC50 (cell toxicity CC50) of over 25 µM.

`CN(CC1COc2c(C(=O)N[C@H]3N=C(c4ccccc4)c4cccc(F)c4NC3=O)c(-c3ccccc3F)nn2C1)C1CCOCC1` (stereo partly drawn) [Example 168, N-[(3S)-9-fluoro-2-oxo-5-phenyl-1,3-dihydro-1,4-benzodiazepin-3-yl]-2-(2-fluorophenyl)-6-[[methyl(oxan-4-yl)amino]methyl]-6,7-dihydro-5H-pyrazolo[5,1-b][1,3]oxazine-3-carboxamide] showed an EC50 [1, 2] of 0.104 µM and a CC50 (cell toxicity CC50) of over 25 µM.

`C[C@@H]1CCn2nc(-c3cnn(CC(F)(F)F)c3)c(C(=O)N[C@H]3N=C(c4ccccc4)c4cccc(F)c4NC3=O)c2O1` [Example 118, (5R)-N-[(3S)-9-fluoro-2-oxo-5-phenyl-1,3-dihydro-1,4-benzodiazepin-3-yl]-5-methyl-2-[1-(2,2,2-trifluoroethyl)pyrazol-4-yl]-6,7-dihydro-5H-pyrazolo[5,1-b][1,3]oxazine-3-carboxamide] showed an EC50 [1, 2] of 0.043 µM and a CC50 (cell toxicity CC50) of over 25 µM.

For `O=C(N[C@H]1N=C(c2ccccc2)c2cccc(F)c2NC1=O)c1c(-c2ccc(F)cc2F)nn2c1OCC(CO)C2` (stereo partly drawn) [Example 128, 2-(2,4-Difluorophenyl)-N-[(3S)-9-fluoro-2-oxo-5-phenyl-1,3-dihydro-1,4-benzodiazepin-3-yl]-6-(hydroxymethyl)-6,7-dihydro-5H-pyrazolo[5,1-b][1,3]oxazine-3-carboxamide], the EC50 [1, 2] was 0.041 µM and the CC50 (cell toxicity CC50) was over 25 µM.

Molecule `Cc1nn(C)cc1-c1nn2c(c1C(=O)N[C@H]1N=C(c3ccccc3)c3cccc(F)c3NC1=O)O[C@H](C)CC2` [Example 115, (5R)-2-(1,3-Dimethylpyrazol-4-yl)-N-[(3S)-9-fluoro-2-oxo-5-phenyl-1,3-dihydro-1,4-benzodiazepin-3-yl]-5-methyl-6,7-dihydro-5H-pyrazolo[5,1-b][1,3]oxazine-3-carboxamide] has an EC50 [1, 2] of 0.226 µM and a CC50 (cell toxicity CC50) of over 25 µM.

With `CCn1cc(-c2nn3c(c2C(=O)N[C@H]2N=C(c4ccccc4)c4cccc(F)c4NC2=O)OCC(CO)C3)cn1` (stereo partly drawn) [Example 130, 2-(1-Ethylpyrazol-4-yl)-N-[(3S)-9-fluoro-2-oxo-5-phenyl-1,3-dihydro-1,4-benzodiazepin-3-yl]-6-(hydroxymethyl)-6,7-dihydro-5H-pyrazolo[5,1-b][1,3]oxazine-3-carboxamide] the EC50 [1, 2] was 0.35 µM and the CC50 (cell toxicity CC50) was over 25 µM.

In the case of `C[C@@H]1CCn2nc(-c3cncc(Cl)c3)c(C(=O)N[C@H]3N=C(c4ccccc4)c4ccccc4NC3=O)c2O1` [Example 46, (5R)-2-(5-Chloropyridin-3-yl)-5-methyl-N-[(3S)-2-oxo-5-phenyl-1,3-dihydro-1,4-benzodiazepin-3-yl]-6,7-dihydro-5H-pyrazolo[5,1-b][1,3]oxazine-3-carboxamide], the EC50 [1, 2] is reported as 0.119 µM and the CC50 (cell toxicity CC50) is reported as over 25 µM.

Reference: patent US12678446B2 (PFIZER INC., priority 2020, dated 2026)
